From BindingDB's records for doi:10.1021/acs.jmedchem.6b01303 (Astrazeneca, 2016)

Test: Inhibition of SMYD2 (unknown origin) expressed in human U2OS cells assessed as reduction in cell count incubated for 24 hrs by DAPI staining based assay

Compound	IC50
N#Cc1cc(C(=O)NCCCN2CCCC2)cc(-c2ccccc2N2CCN(CCc3ccc(Cl)c(Cl)c3)CC2)c1	5 µM
O=C(NCCCN1CCCC1)c1cncc(-c2ccccc2N2CCN(CCc3c[nH]c4ccccc34)CC2)c1	13.3 µM
